In patent US11786468B2, “Nanoparticles” (KING'S COLLEGE LONDON, priority 2015, dated 2023):
Where “and” joins values, the source holds several entries; their conditions need not be identical. Identical values can stand only once. Blank lines part the entries; values can stand above or below the molecule they belong to.

Legend:
[1] = 7T MRI T1/T2 assessment and relaxometry of liposome samples; format: physicochemical; parameters: r1: unit not given here; conditions: for T1 (s) 1 param / T1 (s) 3 param / T1 (s) Image J / T2 (s) 1 param / T2 (s) Image J / T2 (s) 3 param: 7T
Excerpt: A series of MRI T1/T2 assessment studies have been carried out using a 7 T pre clinical MRI scanner, with the assistance of Dr Po-Wah So (James Black Centre, KCL). The focus here has been to derive reliable r1/r2 relaxivities per molar Gd(III) for liposome produced using the [Gd]DOTA.DSA, [Gd]DOTA.Ahx.DSA and [Gd]DOTA.Aoc.DSA. This is reliant on both accurate measurements of the T1/T2 effects and also the exact gadolinium concentration in the prepared liposome suspensions. The extrusion and gel filtration processes make this latter hard to estimate, so Inductively Coupled Plasma Mass Spectrometry (ICP-MS) quantification is being assessed. This is turn required testing of suitable acid digestion conditions since the lipid-chelates may not be analysed directly. For both MRI and ICP-MS, commercial Gadovist is being used a positive control contrast agent of known Gd content. Assessment of temperature, buffer salt and liposome size effects on T1/T2 are also underway.
FIGS. 22 and 23 show Example T1 and T2 brightness traces for controls and liposome samples.
MRI data (T1, T2 lower is brighter) is shown Table 1:
Comparison of liposomes containing different lipids as measured at 7T Magnet*.

[2] = Pharmacokinetics of topotecan in blood by HPLC; format: in vivo, Balb C Mice; conditions: i.v. tail vein, concentration matched
Description: Balb C Mice were injected with IgFUS-TNPs encapsulating topotecan (8 mg/kg per mouse body weight) and drug pharmacokinetics monitored by blood sample analyses. Blood samples (50-100 μL) were collected at time intervals (2 min-4 h) and transferred into pre-weighed plastic vials containing heparin (5 uL). Cold methanol (100 μL) was added to each and the mixed samples stored over dry ice or at −20° C. until required. After thawing, each vial was weighed again and the difference used to estimate then original sample volume. […] Batches of 5 samples were analysed three times using an Agilent 1100 HPLC equipped with a cooled sample chamber (8-12° C.), a guarded Thermo Hypersil 30×4.6 mm, 5 μm C18 column, a Diode Array Detector (UV/vis absorbance) and an Agilent 1260 Infinity fluorescence detector. […] Detection was by absorbance (210/254/280 nm for proteins and other biologicals; 380 nm for topotecan; all using a bandwidth of 8 nm c.p. reference at 700 nm) and fluorescence (Ex 400 nm; Em 545 nm; PMT-gain 18). Injections were 5-20 μL depending on the sample concentrations and quantifications were calculated from the fluorescence peak areas after calibration (the detector response was effectively linear over the sensitive range). Topotecan could be reliably identified even at extremely low concentrations (10-20 ng/mL) by its intrinsic fluorescence and retention time (3.33±0.03 min; N=45). […]

[3] = 19.6 °C, conc >0.3 mM, dil not given
[4] = 19.6 °C, dil 1 (liposomes 20 mg/mL; Gadovist 3.1 or 3 mM), Gadovist 3 mM
[5] = 19.6 °C, dil 1 (liposomes 20 mg/mL; Gadovist 3.1 or 3 mM), Gadovist 3.1 mM
[6] = 35.5 °C, conc >0.3 mM, dil not given

T1 (s) 1 param [1, 3]: 2.033 s | T1 (s) 3 param [1, 3]: 2.061 s | T1 (s) Image J [1, 3]: 2.061 s | T2 (s) 1 param [1, 3]: 0.206 s | T2 (s) Image J [1, 3]: 0.1 s | T1 (s) 1 param [1, 4]: 0.09174 s | T1 (s) 3 param [1, 4]: 0.07712 s | T1 (s) Image J [1, 4]: 0.092 s | T2 (s) 1 param [1, 4]: 0.04691 s | T2 (s) 3 param [1, 4]: 0.0488 s | T2 (s) Image J [1, 4]: 0.047 s | T1 (s) 1 param [1, 5]: 0.072 s | T1 (s) 3 param [1, 5]: 0.084 s | T1 (s) Image J [1, 5]: 0.084 s | T2 (s) 1 param [1, 5]: 0.0431 s and 0.0426 s | T2 (s) 3 param [1, 5]: 0.0422 s and 0.0419 s | T2 (s) Image J [1, 5]: 0.042 s | T1 (s) 1 param [1, 6]: 2.602 s | T1 (s) 3 param [1, 6]: 2.617 s | T1 (s) Image J [1, 6]: 2.606 s | T2 (s) 1 param [1, 6]: 0.153 s | T2 (s) Image J [1, 6]: 0.1 s | T1 (s) 1 param ([1]; 39.5 °C, dil 1 (Gadovist 3 mM)): 0.1297 s | T1 (s) 3 param ([1]; 39.5 °C, dil 1 (Gadovist 3 mM)): 0.1138 s | T1 (s) Image J ([1]; 39.5 °C, dil 1 (Gadovist 3 mM)): 0.13 s | T2 (s) 1 param ([1]; 39.5 °C, dil 1 (Gadovist 3 mM)): 0.05335 s | T2 (s) 3 param ([1]; 39.5 °C, dil 1 (Gadovist 3 mM)): 0.05578 s | T2 (s) Image J ([1]; 39.5 °C, dil 1 (Gadovist 3 mM)): 0.053 s | r1 ([1]; measured at 7T Magnet): 4.8
SMILES: O=C([O-])CN1CCN(CC(=O)[O-])CCN([C@H](CO)[C@H](O)CO)CCN(CC(=O)[O-])CC1.[Gd+3] (racemic) [Gadovist]

drug clearance from the blood pool [2]: cleared from the blood pool in mins
SMILES: CC[C@@]1(O)C(=O)OCc2c1cc1n(c2=O)Cc2cc3c(CN(C)C)c(O)ccc3nc2-1 [topotecan]
